Earlier results on one compound are cited in patent publication US20120277719A1, “COATING COMPOSITIONS, METHODS AND COATED DEVICES” (MASSACHUSETTS INSTITUTE OF TECHNOLOGY, priority 2011, published 2012).

As usually defined, the pKa is the negative logarithm of the acid dissociation constant.

The conditions of the series: reported.

With `O=C(OC[C@H]1O[C@@H](OC(=O)c2cc(O)c(O)c(OC(=O)c3cc(O)c(O)c(O)c3)c2)[C@H](OC(=O)c2cc(O)c(O)c(OC(=O)c3cc(O)c(O)c(O)c3)c2)[C@@H](OC(=O)c2cc(O)c(O)c(OC(=O)c3cc(O)c(O)c(O)c3)c2)[C@@H]1OC(=O)c1cc(O)c(O)c(OC(=O)c2cc(O)c(O)c(O)c2)c1)c1cc(O)c(O)c(OC(=O)c2cc(O)c(O)c(O)c2)c1` [Tannic acid, tannic acid], the pKa is recorded as ~8.5.
